Test results: PubChem BioAssay AID296 (DTP/NCI, 2004)
Where “and” joins values, the source holds several entries; their conditions need not be identical. Equal values may be shown once. Records with an inconclusive call do not appear.

System: MX-1 breast xenograft, nude mice, tumor weight T/C
Assay: NCI In Vivo Anticancer Drug Screen. Data for tumor model Human Mammary Carcinoma MX-1 Xenograft (intrarenal inoculation) in NU/NU Swiss (nude) mice
Settings: endpoint: mean tumor weight change, higher = larger tumour
Outline: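 Compound dosed to mice with transplantable tumor; vehicle group as control. Endpoint survival or tumour size, reported as T/C.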

[1] = dose: 300.0 mg/kg/injection, schedule: Q04DX003 (sc), vehicle: saline with Tween-80
[2] = dose: 0.25 mg/kg/injection, schedule: Q04DX003 (sc), vehicle: saline + alcohol
[3] = dose: 0.5 mg/kg/injection, schedule: Q04DX003 (sc), vehicle: saline + alcohol
[4] = dose: 75.0 mg/kg/injection, schedule: Q04DX003 (sc), vehicle: Klucel (hydroxypropylcellulose) (HPC)
[5] = dose: 150.0 mg/kg/injection, schedule: Q04DX003 (sc), vehicle: Klucel (hydroxypropylcellulose) (HPC)
[6] = dose: 300.0 mg/kg/injection, schedule: Q04DX003 (sc), vehicle: Klucel (hydroxypropylcellulose) (HPC)
[7] = dose: 50.0 mg/kg/injection, schedule: Q01DX010 (sc), vehicle: saline with Tween-80

SMILES: O=S(=O)(N=N/C=C1\C=CC=CN1O)c1cccs1
- T/C (dose: 75.0 mg/kg/injection, schedule: Q04DX003 (sc), vehicle: saline with Tween-80): 99 % of control
- T/C (dose: 150.0 mg/kg/injection, schedule: Q04DX003 (sc), vehicle: saline with Tween-80): 77 % of control
- T/C [1]: 72 % of control

SMILES: COCC1OC2OC3C(COC)OC(OC4C(COC)OC(OC5C(COC)OC(OC6C(COC)OC(OC7C(COC)OC(OC8C(COC)OC(OC1C(O)C2O)C(O)C8O)C(O)C7O)C(O)C6O)C(O)C5O)C(O)C4O)C(O)C3O (centres undefined) (tested in a mixture with another compound)
- T/C (dose: 100.0 mg/kg/injection, schedule: Q04DX003 (sc), vehicle: Klucel (hydroxypropylcellulose) (HPC)): 82 % of control
- T/C (dose: 200.0 mg/kg/injection, schedule: Q04DX003 (sc), vehicle: Klucel (hydroxypropylcellulose) (HPC)): 96 % of control
- T/C (dose: 400.0 mg/kg/injection, schedule: Q04DX003 (sc), vehicle: Klucel (hydroxypropylcellulose) (HPC)): 86 % of control
- T/C (dose: 800.0 mg/kg/injection, schedule: Q04DX003 (sc), vehicle: Klucel (hydroxypropylcellulose) (HPC)): 76 % of control

SMILES: COC(=O)[C@@]12OC[C@]34[C@H]([C@@H](O)[C@@H]1O)[C@@]1(C)CC(=O)C(O)=C(C)[C@@H]1C[C@H]3OC(=O)[C@H](OC(=O)/C=C(\C)C(C)C)[C@@H]24
- T/C [2]: 52 % of control
- T/C [3]: 158 % of control
- T/C (dose: 1.0 mg/kg/injection, schedule: Q04DX003 (sc), vehicle: saline + alcohol): 100 % of control
- T/C (dose: 2.0 mg/kg/injection, schedule: Q04DX003 (sc), vehicle: saline + alcohol): 90 % of control

SMILES: CCCCCC[Se][Se]CCCCCC
- T/C [4]: 98 % of control
- T/C [5]: 80 % of control
- T/C [6]: 102 % of control and 114 % of control

SMILES: CCCC(=O)Oc1ccc(/C=N/NC(N)=S)nc1
- T/C [7]: 101 % of control
- T/C (dose: 200.0 mg/kg/injection, schedule: Q01DX010 (sc), vehicle: saline with Tween-80): 113 % of control

SMILES: CCC(=O)N(C)[C@@H](C)C(=O)O[C@H]1CC(=O)N(C)c2cc(cc(OC)c2Cl)C/C(C)=C/C=C[C@@H](OC)[C@@]2(O)C[C@H](OC(=O)N2)[C@@H](C)[C@@H]2O[C@@]12C
- T/C (dose: 0.07 mg/kg/injection, schedule: Q04DX003 (sc), vehicle: saline + alcohol): 117 % of control
- T/C (dose: 0.13 mg/kg/injection, schedule: Q04DX003 (sc), vehicle: saline + alcohol): 98 % of control
- T/C [2]: 88 % of control
- T/C [3]: 7 % of control

SMILES: CC(=O)OCC1OC(n2cc(CBr)nn2)C(OC(C)=O)C(OC(C)=O)C1OC(C)=O (centres undefined)
- T/C (dose: 12.5 mg/kg/injection, schedule: Q01DX010 (sc), vehicle: saline with Tween-80): 106 % of control
- T/C (dose: 25.0 mg/kg/injection, schedule: Q01DX010 (sc), vehicle: saline with Tween-80): 117 % of control
- T/C [7]: 117 % of control

SMILES: c1cc(OCC2CO2)ccc1OCC1CO1 (centres undefined)
- T/C [1]: 110 % of control
- T/C (dose: 600.0 mg/kg/injection, schedule: Q04DX003 (sc), vehicle: saline with Tween-80): 103 % of control
- T/C (dose: 1200.0 mg/kg/injection, schedule: Q04DX003 (sc), vehicle: saline with Tween-80): 92 % of control
- T/C (dose: 2400.0 mg/kg/injection, schedule: Q04DX003 (sc), vehicle: saline with Tween-80): 106 % of control

SMILES: CC[N](CC)[Ge]([CH2]C)[CH2]C.CC[N](CC)[Ge]([CH2]C)[CH2]C
- T/C (dose: 12.5 mg/kg/injection, schedule: Q01DX010 (sc), vehicle: saline): 190 % of control
- T/C (dose: 25.0 mg/kg/injection, schedule: Q01DX010 (sc), vehicle: saline): 106 % of control
- T/C (dose: 50.0 mg/kg/injection, schedule: Q01DX010 (sc), vehicle: saline): 106 % of control

SMILES: Cc1cc(NC(=S)SCc2ccc3c(c2)OCO3)ccc1Cl
- T/C [5]: 106 % of control
- T/C [6]: 104 % of control
- T/C (dose: 600.0 mg/kg/injection, schedule: Q04DX003 (sc), vehicle: Klucel (hydroxypropylcellulose) (HPC)): 118 % of control
- T/C (dose: 1200.0 mg/kg/injection, schedule: Q04DX003 (sc), vehicle: Klucel (hydroxypropylcellulose) (HPC)): 88 % of control

SMILES: CN(C)c1ccc2c(N(C)C)cc(N(C)C)nc2c1
- T/C (dose: 18.75 mg/kg/injection, schedule: Q04DX003 (sc), vehicle: Klucel (hydroxypropylcellulose) (HPC)): 78 % of control
- T/C (dose: 37.5 mg/kg/injection, schedule: Q04DX003 (sc), vehicle: Klucel (hydroxypropylcellulose) (HPC)): 84 % of control
- T/C [4]: 82 % of control

SMILES: Cc1ncc(CNC(=O)N(CCCl)N=O)c(N)n1
- T/C (dose: 9.38 mg/kg/injection, schedule: Q04DX003 (sc), vehicle: saline): 43 % of control
- T/C (dose: 18.75 mg/kg/injection, schedule: Q04DX003 (sc), vehicle: saline): 28 % of control
